This note sets out measurements from patent US8338472B2, “Hexahydrocyclopentyl[F]indazole carboxamides and derivatives thereof as selective glucocorticoid receptor modulators” (Merck Sharp & Dohme Corp., priority 2008, dated 2012).

Like-named read-outs stand apart in the source and are kept apart here. A value given as a limit tells only on which side of the number the result lay.

The target of assay [1] is T1, Glucocorticoid Receptor (Homo sapiens, UniProt P04150).
T1 construct: These cells express large amount of the GR and are very responsive to GC treatment; endogenous in cells; host or cells: A549 cells transiently transfected with the MMTV-LUC reporter
T1 sequence (P04150 1-777): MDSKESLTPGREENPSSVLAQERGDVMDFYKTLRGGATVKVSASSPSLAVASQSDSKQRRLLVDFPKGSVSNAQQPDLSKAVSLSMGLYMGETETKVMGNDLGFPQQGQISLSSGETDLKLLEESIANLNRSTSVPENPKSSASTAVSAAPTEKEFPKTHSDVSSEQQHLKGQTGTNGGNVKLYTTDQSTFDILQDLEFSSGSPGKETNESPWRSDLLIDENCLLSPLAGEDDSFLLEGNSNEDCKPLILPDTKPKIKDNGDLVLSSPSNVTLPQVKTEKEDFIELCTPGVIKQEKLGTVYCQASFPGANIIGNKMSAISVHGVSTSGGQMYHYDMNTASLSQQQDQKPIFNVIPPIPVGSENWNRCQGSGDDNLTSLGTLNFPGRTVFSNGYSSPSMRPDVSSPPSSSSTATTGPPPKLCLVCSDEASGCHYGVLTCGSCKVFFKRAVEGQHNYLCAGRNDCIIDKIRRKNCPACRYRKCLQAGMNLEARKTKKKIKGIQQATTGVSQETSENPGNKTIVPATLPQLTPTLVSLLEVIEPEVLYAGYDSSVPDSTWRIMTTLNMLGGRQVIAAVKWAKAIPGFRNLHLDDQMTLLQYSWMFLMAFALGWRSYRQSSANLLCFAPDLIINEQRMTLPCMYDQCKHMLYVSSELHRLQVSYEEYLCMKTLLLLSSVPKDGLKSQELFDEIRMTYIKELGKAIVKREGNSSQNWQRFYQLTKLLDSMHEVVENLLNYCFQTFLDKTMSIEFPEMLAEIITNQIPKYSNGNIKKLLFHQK
Briefly: Trans-Activation Modulation of Glucocorticoid Receptor (GRAMMER), MMTV-LUC reporter gene in A549 cells. In kind it is cell-based. The conditions noted are these: Table 1; for Emax: A549, A549 cells, Emax relative to 300 nM dexamethasone, read-out: Transactivation A549 Cells GRAMMER Emax; for EC50: inflection point, A549 cells, read-out: Transactivation A549 Cells GRAMMER IP. The procedure, abridged: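 Luciferase from a transiently transfected MMTV-LUC reporter was measured after 24 h compound exposure (≤1% DMSO) in A549 or MDA-MB-453 cells. For antagonism, the decrease of 10 nM dexamethasone-induced signal was calculated. For agonism, Emax was referenced to 300 nM dexamethasone.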
In general terms: A reporter such as luciferase makes a cellular process visible.

Assay [2] addresses T2, glucocorticoid receptor (GR) (Homo sapiens, UniProt P04150).
T2 sequence (P04150 1-777): T1 sequence (P04150 1-777)
The assay can be described thus: Ligand binding assay (GR BIND), 3H-dexamethasone displacement in MDA-MB-453 cell lysate. The note with it: GR BIND Ki, Table 1.

Assay [3] concerns the target T3, human GR (Homo sapiens, UniProt P04150).
T3 construct: U937 cells contain an endogenous glucocorticoid receptor (GR); endogenous in cells; host or cells: U937 cells stably transfected with the TNF-alpha promoter/beta-lactamase reporter
T3 sequence (P04150 1-777): T1 sequence (P04150 1-777)
The assay can be described thus: Transrepression Assay (GITAR), TNFα-β-lactamase reporter gene in U937 cells. Type of assay: cell-based. The note with it: for GITAR Greater than by GRAMMER % SEP: GITAR Emax minus GRAMMER Emax; for EC50: inflection point, U937 cells, read-out: Transrepression U937 Cells GITAR IP. An outline of the steps:
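Repression of PMA (5 ng/ml final)/LPS (100 ng/ml final)-induced TNF-α promoter activity, read as β-lactamase cleavage of CCF2-AM, in stably transfected U937 cells expressing native GR. Compound added 30-45 min before stimulation, overnight (~18 hr) 37° C; normalized to 100 nM dexamethasone (100%).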

Where [4] appears, read: U-937, U937 cells, activity repressed by 100 nM dexamethasone = 100%, Table 1, read-out: Transrepression U937 Cells GITAR Emax.
Where [5] appears, read: U-937, text statement, 100 nM dexamethasone = 100%, read-out: maximal activity in the transrepression assay (GITAR).

For orientation: Ki means the dissociation constant of the complex between target and ligand, obtained from inhibition or displacement. High values mean a looser hold on the target, low ones a stronger hold on the target. Consider `C[C@]12Cc3cnn(-c4ccc(F)cc4)c3C=C1CC[C@@H]2C(=O)N(CCO)CCc1ccccc1` [Compound 35, (4αR,5S)-1-(4-fluorophenyl)-N-(2-hydroxyethyl)-4α-methyl-N-(2-phenylethyl)-1,4,4α,5,6,7-hexahydrocyclopenta[f]indazole-5-carboxamide], for which the Emax in assay [1] is 31.8%; in assay [3] (setting [4]) it was 62.6%; in assay [3] (setting [5]) it was over 5%. The EC50 in assay [1] came out at 2650 nM; in assay [3] (Table 1) it was 945 nM. In assay [2], this compound returned a Ki of 14.7 nM. Also, in assay [3] (Table 1), the “GITAR Greater than by GRAMMER % SEP” value is on record as 30.8%.

Regarding `C[C@]12Cc3cnn(-c4ccc(F)cc4)c3C=C1CC[C@@H]2C(=O)N(CCO)Cc1ccccc1` [Compound 36, (4αR,5S)-N-benzyl-1-(4-fluorophenyl)-N-(2-hydroxyethyl)-4α-methyl-1,4,4α,5,6,7-hexahydrocyclopenta[f]indazole-5-carboxamide], the Emax in assay [1] is 12.5%; in assay [3] (setting [4]), 67.4%; in assay [3] (setting [5]), over 5%. Moreover, the EC50 in assay [1] stood at 872 nM; in assay [3] (Table 1) it was 1280 nM. In assay [2], the affinity corresponds to a Ki of 11.7 nM. Also, the “GITAR Greater than by GRAMMER % SEP” value in assay [3] (Table 1) turned out to be 54.9%.

For the compound `CCCN(CCO)C(=O)[C@H]1CCC2=Cc3c(cnn3-c3ccc(F)cc3)C[C@@]21C` [Compound 37, (4αR,5S)-1-(4-fluorophenyl)-N-(2-hydroxyethyl)-4α-methyl-N-propyl-1,4,4α,5,6,7-hexahydrocyclopenta[f]indazole-5-carboxamide], the values for the Emax in assay [1], in assay [3] (setting [4]) and in assay [3] (setting [5]) were 5.7%, 37% and over 5%, respectively. In addition, the EC50 in assay [1] stood at 2550 nM; in assay [3] (Table 1), 3420 nM. Further, the inhibition constant Ki in assay [2] stood at 168 nM. The “GITAR Greater than by GRAMMER % SEP” value in assay [3] (Table 1) is 31.3%.

For the compound `CCCCCN(CCO)C(=O)[C@H]1CCC2=Cc3c(cnn3-c3ccc(F)cc3)C[C@@]21C` [Compound 38, (4αR,5S)-1-(4-fluorophenyl)-N-(2-hydroxyethyl)-4α-methyl-N-pentyl-1,4,4α,5,6,7-hexahydrocyclopenta[f]indazole-5-carboxamide], the Emax is 37.5% in assay [1], 84.7% in assay [3] (setting [4]) and over 5% in assay [3] (setting [5]). In addition, the EC50 in assay [1] was found to be 660 nM; in assay [3] (Table 1), 739 nM. In assay [2], this compound yielded a Ki of 14.6 nM. Further, the “GITAR Greater than by GRAMMER % SEP” value in assay [3] (Table 1) came to 47.3%.

In the case of `CCCCN(CC=O)C(=O)[C@H]1CCC2=Cc3c(cnn3-c3ccc(F)cc3)C[C@@]21C` [Compound 39, (4αR,5S)-N-butyl-1-(4-fluorophenyl)-4α-methyl-N-(2-oxoethyl)-1,4,4α,5 ,6,7-hexahydrocyclopenta[f]indazole-5-carboxamide], the Emax in assay [1] was 27%; in assay [3] (setting [4]), 94.3%; in assay [3] (setting [5]), over 5%. The EC50 worked out at 535 nM in assay [1] and 125 nM in assay [3] (Table 1). Further, the Ki in assay [2] is 4.4 nM. Besides, the “GITAR Greater than by GRAMMER % SEP” value in assay [3] (Table 1) turned out to be 67.4%.

In the case of `CCCCN(CC(C)O)C(=O)[C@H]1CCC2=Cc3c(cnn3-c3ccc(F)cc3)C[C@@]21C` (stereo partly drawn) [Compound 40, (4αR,5S)-N-butyl-1-(4-fluorophenyl)-N-(2-hydroxypropyl)-4α-methyl-1,4,4α,5,6,7-hexahydrocyclopenta[f]indazole-5-carboxamide], the Emax in assay [1] was 66.4%; in assay [3] (setting [4]) it was 86.8%; in assay [3] (setting [5]) it was over 5%. Moreover, the EC50 in assay [1] came out at 108 nM; in assay [3] (Table 1), 141 nM. The Ki in assay [2] came out at 5.1 nM. In addition, in assay [3] (Table 1), the “GITAR Greater than by GRAMMER % SEP” value worked out at 20.4%.

Turning to `CN(CC#N)C(=O)[C@H]1CCC2=Cc3c(cnn3-c3ccc(F)cc3)C[C@@]21C` [Compound 41, (4αR,5S)-N-(cyanomethyl)-1-(4-fluorophenyl)-N,4α-dimethyl-1,4,4α,5,6,7-hexahydrocyclopenta[f]indazole-5-carboxamide], the Emax in assay [1] is 5.6%; in assay [3] (setting [4]), 41%; in assay [3] (setting [5]) it was over 5%. For the same compound, the EC50 was 4050 nM in assay [1] and 2360 nM in assay [3] (Table 1). Besides, the affinity in assay [2] corresponds to a Ki of 44.3 nM. In assay [3] (Table 1), the “GITAR Greater than by GRAMMER % SEP” value is 35.4%.
